# Test results as given in patent US7816338B2, “Compositions and methods for inhibiting car gene expression by RNA interference” (Sumitomo Chemical Company, Limited, priority 2007, dated 2010).
# What was measured:
# liver [1] = assay: Centrilobular cell hypertrophy, histopathological examination of the liver (Example 11); type: in vivo, rat; settings: rats; group treated with PB and control siRNA (Cont)
# Experimental: Histopathological examination of the liver in the rats to which siRNA (CAR) or control siRNA (Cont) was administered by the methods described in (1) to (3) of Example 2 is performed by the method described in (5) of Example 2. As a result, centrilobular cell hypertrophy is increased in the group treated with PB and control siRNA (Cont) as compared to the case of the untreated animal group.
# [2] = test system: CYP2B dependent pentoxyresorufin O-depentylation activity; assay: CYP2B dependent PROD (pentoxyresorufin O-depentylation activity) in hepatocytes (Example 6); type: cell-based, rat; settings: PB and control siRNA (Cont) treatment; 72 hours after siRNA
# Experimental: Then, the culture medium is replaced with 2 mL of William's culture medium containing 7 μM of 7-pentoxyresorufin and 7 μM of dicumarol. The culture medium is incubated at 37° C. for 4 hours, and then the culture medium is recovered. The cells are mixed with 1000 U of β-glucronidase (bovine liver-derived) and 50 mM of sodium acetate solution (pH 5), which is left at 37° C. for 3 hours. Measurement of pentoxyresorufin O-depentylation activity is performed by measuring the amount of fluorescence per unit solution. Further, the measurement is carried out at an excitation wavelength of 530 nm and a fluorescence wavelength of 585 nm using a fluorophotometer (F-4010, manufactured by Hitachi). In evaluation of the results, the total amount of protein in the cells in which the substrate was treated is measured by the Protein assay kit (Bio-Rad) and the production amount of resorufin per unit protein (amount of pentoxyresorufin O-depentylation) is calculated on the basis of the calibration curve of resorufin. […] As a result, pentoxyresorufin O-depentylation activity is enhanced by PB and control siRNA (Cont) treatment as compared to the case of the untreated cells.
# CYP2B1 mRNA = assay: CYP2B1 gene expression in PB-treated primary hepatocyte cultured cells (Example 5 (3))
# liver [3] = assay: Liver wet weight in rats (Example 10); type: in vivo, rat; settings: group treated with PB and control siRNA (Cont)
# Experimental: The wet weight of the liver in the rats to which siRNA (CAR) or control siRNA (Cont) was administered by the methods described in (1) to (3) of Example 2 is measured by the method described in (5) of Example 2. As a result, the liver weight is increased in the group treated with PB and control siRNA (Cont) as compared to the case of the untreated animal group.
structure (smiles),measurement,setting,value
"CCC1(c2ccccc2)C(=O)NC(=O)NC1=O [PB, Phenobarbital]",centrilobular cell hypertrophy as compared to the untreated animal group,liver [1],increased
same,pentoxyresorufin O-depentylation activity as compared to the untreated cells,[2],enhanced
same,CYP2B1 mRNA expression increase compared to cells untreated with PB,CYP2B1 mRNA; cells treated with PB (50 nM) and control siRNA(Cont),about fivefold
same,CYP2B1 expression increase by PB treatment compared to cells untreated with compound,"CYP2B1 mRNA; cells which inhibited CAR (siRNA(CAR)), PB 50 nM",about twofold
same,liver weight as compared to the untreated animal group,liver [3],increased
